Reference: patent US8952024B2, “Herbicidal pyrimidone derivatives” (E I du Pont de Nemours and Company, priority 2009, dated 2015)

Experiments:
Test in all cases: Test B pre-/postemergence plant response
Assay type in all cases: in vivo
[1] = tested on: wheat (Triticum aestivum)
Procedure, shortened: (§1)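 Seeds sown in loam–sand blend were treated preemergence, and plants at 2–18 cm (1- to 4-leaf stage) in peat-based medium were treated postemergence; compounds were formulated in non-phytotoxic solvent with surfactant. After 13–15 days in greenhouse, response was visually rated against controls, 0 (no effect) to 100 (complete control).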

[2] = tested on: Surinam grass (Brachiaria decumbens)
Procedure, shortened: as §1

[3] = tested on: yellow nutsedge (Cyperus esculentus)
Procedure, shortened: as §1

[4] = tested on: Italian ryegrass (Lolium multiflorum)
Procedure, shortened: as §1

[5] = tested on: downy bromegrass (Bromus tectorum)
Procedure, shortened: as §1

[6] = tested on: woolly cupgrass (Eriochloa villosa)
Procedure, shortened: as §1

[7] = tested on: lambsquarters (Chenopodium album)
Procedure, shortened: as §1

[8] = tested on: green foxtail (Setaria viridis)
Procedure, shortened: as §1

[9] = tested on: goosegrass (Eleusine indica)
Procedure, shortened: as §1

[10] = tested on: large crabgrass (Digitaria sanguinalis)
Procedure, shortened: as §1

[11] = tested on: ragweed (common ragweed, Ambrosia elatior)
Procedure, shortened: as §1

[12] = tested on: velvetleaf (Abutilon theophrasti)
Procedure, shortened: as §1

[13] = tested on: pigweed (Amaranthus retroflexus)
Procedure, shortened: as §1

[14] = 250 g ai/ha, Preemergence, 0 to 100 scale
[15] = Postemergence, 31 g ai/ha, scale 0 to 100 (0 no effect, 100 complete control)
[16] = Postemergence, 62 g ai/ha, scale 0 (no effect) to 100 (complete control), 13 to 15 days
[17] = Postemergence, 125 g ai/ha, visual rating after 13 to 15 days, scale 0 (no effect) to 100 (complete control)
[18] = Postemergence, 250 g ai/ha, scale 0 to 100
[19] = Preemergence, 31 g ai/ha, scale 0 to 100 (0 no effect, 100 complete control)
[20] = Preemergence, 62 g ai/ha, scale 0 to 100 (0 no effect, 100 complete control)
[21] = Preemergence, 125 g ai/ha, 0 to 100 scale
[22] = Preemergence, 0 is no effect, 100 is complete control, rated after 13 to 15 days, application rate of this section not shown

## 3-cyclohexyl-5-[(2-hydroxy-6-oxo-1-cyclohexen-1-yl)carbonyl]-2-phenyl-4(3H)-pyrimidinone [Compound 128]
[1]; [14]
  Plant response rating, Wheat: 5
[1]; [15]
  Plant response rating, Wheat: 30
[1]; [16]
  Plant response rating, Wheat: 35
[1]; [17]
  Plant response rating, Wheat: 40
[1]; [18]
  Wheat plant response rating: 45
[1]; [19]
  Plant response rating, Wheat: 0
[1]; [20]
  Plant response rating, Wheat: 0
[1]; [21]
  Wheat plant response rating: 0
[2]; [14]
  Plant response rating, Surinam Grass: 75
[2]; [15]
  Plant response rating, Surinam Grass: 60
[2]; [16]
  Plant response rating, Surinam Grass: 70
[2]; [17]
  Plant response rating, Surinam Grass: 85
[2]; [18]
  Surinam Grass plant response rating: 85
[2]; [19]
  Plant response rating, Surinam Grass: 0
[2]; [20]
  Plant response rating, Surinam Grass: 25
[2]; [21]
  Surinam Grass plant response rating: 35
[3]; [14]
  Plant response rating, Nutsedge, Yellow: 90
[3]; [15]
  Plant response rating, Nutsedge, Yellow: 25
[3]; [16]
  Plant response rating, Nutsedge, Yellow: 35
[3]; [17]
  Plant response rating, Nutsedge, Yellow: 50
[3]; [18]
  Nutsedge, Yellow plant response rating: 60
[3]; [19]
  Plant response rating, Nutsedge, Yellow: 0
[3]; [20]
  Plant response rating, Nutsedge, Yellow: 55
[3]; [21]
  Nutsedge, Yellow plant response rating: 85
[4]; [14]
  Plant response rating, Ryegrass, Italian: 0
[4]; [15]
  Plant response rating, Ryegrass, Italian: 10
[4]; [16]
  Plant response rating, Ryegrass, Italian: 10
[4]; [17]
  Plant response rating, Ryegrass, Italian: 40
[4]; [18]
  Ryegrass, Italian plant response rating: 40
[4]; [19]
  Plant response rating, Ryegrass, Italian: 0
[4]; [20]
  Plant response rating, Ryegrass, Italian: 0
[4]; [21]
  Ryegrass, Italian plant response rating: 0
[5]; [14]
  Plant response rating, Bromegrass, Downy: 5
[5]; [15]
  Plant response rating, Bromegrass, Downy: 20
[5]; [16]
  Plant response rating, Bromegrass, Downy: 35
[5]; [17]
  Plant response rating, Bromegrass, Downy: 45
[5]; [18]
  Bromegrass, Downy plant response rating: 45
[5]; [19]
  Plant response rating, Bromegrass, Downy: 0
[5]; [20]
  Plant response rating, Bromegrass, Downy: 0
[5]; [21]
  Bromegrass, Downy plant response rating: 0
[6]; [14]
  Plant response rating, Cupgrass, Woolly: 75
[6]; [15]
  Plant response rating, Cupgrass, Woolly: 55
[6]; [16]
  Plant response rating, Cupgrass, Woolly: 75
[6]; [17]
  Plant response rating, Cupgrass, Woolly: 90
[6]; [18]
  Cupgrass, Woolly plant response rating: 95
[6]; [19]
  Plant response rating, Cupgrass, Woolly: 0
[6]; [20]
  Plant response rating, Cupgrass, Woolly: 0
[6]; [21]
  Cupgrass, Woolly plant response rating: 15
[7]; [14]
  Plant response rating, Lambsquarters: 100
[7]; [15]
  Plant response rating, Lambsquarters: 50
[7]; [16]
  Plant response rating, Lambsquarters: 70
[7]; [17]
  Plant response rating, Lambsquarters: 95
[7]; [18]
  Lambsquarters plant response rating: 98
[7]; [19]
  Plant response rating, Lambsquarters: 100
[7]; [20]
  Plant response rating, Lambsquarters: 100
[7]; [21]
  Lambsquarters plant response rating: 100
[8]; [14]
  Plant response rating, Foxtail, Green: 65
[8]; [15]
  Plant response rating, Foxtail, Green: 60
[8]; [16]
  Plant response rating, Foxtail, Green: 60
[8]; [17]
  Plant response rating, Foxtail, Green: 85
[8]; [18]
  Foxtail, Green plant response rating: 98
[8]; [19]
  Plant response rating, Foxtail, Green: 0
[8]; [20]
  Plant response rating, Foxtail, Green: 25
[8]; [21]
  Foxtail, Green plant response rating: 65
[9]; [14]
  Plant response rating, Goosegrass: 100
[9]; [15]
  Plant response rating, Goosegrass: 65
[9]; [16]
  Plant response rating, Goosegrass: 85
[9]; [17]
  Plant response rating, Goosegrass: 95
[9]; [18]
  Goosegrass plant response rating: 98
[9]; [19]
  Plant response rating, Goosegrass: 70
[9]; [21]
  Goosegrass plant response rating: 100
[10]; [14]
  Plant response rating, Crabgrass, Large: 100
[10]; [15]
  Plant response rating, Crabgrass, Large: 80
[10]; [16]
  Plant response rating, Crabgrass, Large: 85
[10]; [17]
  Plant response rating, Crabgrass, Large: 100
[10]; [18]
  Crabgrass, Large plant response rating: 100
[10]; [19]
  Plant response rating, Crabgrass, Large: 60
[10]; [20]
  Plant response rating, Crabgrass, Large: 100
[10]; [21]
  Crabgrass, Large plant response rating: 100
[11]; [14]
  Plant response rating, Ragweed: 100
[11]; [15]
  Plant response rating, Ragweed: 100
[11]; [16]
  Plant response rating, Ragweed: 100
[11]; [17]
  Plant response rating, Ragweed: 100
[11]; [18]
  Ragweed plant response rating: 100
[11]; [19]
  Plant response rating, Ragweed: 65
[11]; [20]
  Plant response rating, Ragweed: 100
[11]; [21]
  Ragweed plant response rating: 100
[12]; [14]
  Plant response rating, Velvetleaf: 100
[12]; [15]
  Plant response rating, Velvetleaf: 80
[12]; [16]
  Plant response rating, Velvetleaf: 95
[12]; [17]
  Plant response rating, Velvetleaf: 100
[12]; [18]
  Velvetleaf plant response rating: 100
[12]; [19]
  Plant response rating, Velvetleaf: 100
[12]; [20]
  Plant response rating, Velvetleaf: 100
[12]; [21]
  Velvetleaf plant response rating: 100
[13]; [14]
  Plant response rating, Pigweed: 100
[13]; [15]
  Plant response rating, Pigweed: 65
[13]; [16]
  Plant response rating, Pigweed: 80
[13]; [17]
  Plant response rating, Pigweed: 85
[13]; [18]
  Pigweed plant response rating: 98
[13]; [19]
  Plant response rating, Pigweed: 100
[13]; [20]
  Plant response rating, Pigweed: 100
[13]; [21]
  Pigweed plant response rating: 100

## 5-[(2-hydroxy-6-oxo-1-cyclohexen-1-yl)carbonyl]-2,3-diphenyl-4(3H)-pyrimidinone [Compound 2]
[1]; [15]
  Plant response rating, Wheat: 0
[1]; [16]
  Plant response rating, Wheat: 0
[1]; [17]
  Plant response rating, Wheat: 0
[1]; [18]
  Wheat plant response rating: 5
[1]; [22]
  Wheat plant response rating (0 to 100 scale): 0
[2]; [15]
  Plant response rating, Surinam Grass: 0
[2]; [16]
  Plant response rating, Surinam Grass: 0
[2]; [17]
  Plant response rating, Surinam Grass: 10
[2]; [18]
  Surinam Grass plant response rating: 20
[2]; [22]
  Surinam Grass plant response rating (0 to 100 scale): 0
[3]; [15]
  Plant response rating, Nutsedge, Yellow: 15
[3]; [16]
  Plant response rating, Nutsedge, Yellow: 20
[3]; [17]
  Plant response rating, Nutsedge, Yellow: 20
[3]; [18]
  Nutsedge, Yellow plant response rating: 45
[4]; [15]
  Plant response rating, Ryegrass, Italian: 0
[4]; [16]
  Plant response rating, Ryegrass, Italian: 0
[4]; [17]
  Plant response rating, Ryegrass, Italian: 0
[4]; [18]
  Ryegrass, Italian plant response rating: 0
[4]; [22]
  Ryegrass, Italian plant response rating (0 to 100 scale): 0
[5]; [15]
  Plant response rating, Bromegrass, Downy: 0
[5]; [16]
  Plant response rating, Bromegrass, Downy: 0
[5]; [17]
  Plant response rating, Bromegrass, Downy: 0
[5]; [18]
  Bromegrass, Downy plant response rating: 10
[6]; [15]
  Plant response rating, Cupgrass, Woolly: 0
[6]; [16]
  Plant response rating, Cupgrass, Woolly: 0
[6]; [17]
  Plant response rating, Cupgrass, Woolly: 0
[6]; [18]
  Cupgrass, Woolly plant response rating: 20
[7]; [15]
  Plant response rating, Lambsquarters: 70
[7]; [16]
  Plant response rating, Lambsquarters: 75
[7]; [17]
  Plant response rating, Lambsquarters: 90
[7]; [18]
  Lambsquarters plant response rating: 90
[8]; [15]
  Plant response rating, Foxtail, Green: 5
[8]; [16]
  Plant response rating, Foxtail, Green: 10
[8]; [17]
  Plant response rating, Foxtail, Green: 30
[8]; [18]
  Foxtail, Green plant response rating: 40
[9]; [15]
  Plant response rating, Goosegrass: 60
[9]; [16]
  Plant response rating, Goosegrass: 60
[9]; [17]
  Plant response rating, Goosegrass: 65
[9]; [18]
  Goosegrass plant response rating: 80
[10]; [15]
  Plant response rating, Crabgrass, Large: 40
[10]; [16]
  Plant response rating, Crabgrass, Large: 50
[10]; [17]
  Plant response rating, Crabgrass, Large: 55
[10]; [18]
  Crabgrass, Large plant response rating: 65
[11]; [15]
  Plant response rating, Ragweed: 60
[11]; [16]
  Plant response rating, Ragweed: 70
[11]; [17]
  Plant response rating, Ragweed: 70
[11]; [18]
  Ragweed plant response rating: 75
[11]; [22]
  Ragweed plant response rating (0 to 100 scale): 25
[12]; [15]
  Plant response rating, Velvetleaf: 55
[12]; [16]
  Plant response rating, Velvetleaf: 75
[12]; [17]
  Plant response rating, Velvetleaf: 85
[12]; [18]
  Velvetleaf plant response rating: 90
[12]; [22]
  Velvetleaf plant response rating (0 to 100 scale): 0
[13]; [15]
  Plant response rating, Pigweed: 65
[13]; [16]
  Plant response rating, Pigweed: 80
[13]; [17]
  Plant response rating, Pigweed: 85
[13]; [18]
  Pigweed plant response rating: 90
